Data taken from patent publication US20260265238A1, “COMPOUNDS AND PHARMACEUTICAL COMPOSITIONS THAT DEGRADE SWI/SNF-RELATED MATRIX-ASSOCIATED ACTIN-DEPENDENT REGULATOR OF CHROMATIN SUBFAMILY A” (Plexium, Inc., priority 2023, published 2026).

Key:
[1] = target: T1, SMARCA2-HiBiT HeLa cells (protein which is expressed from the SMARCA2 gene) (Homo sapiens, UniProt P51531); assay: SMARCA2 degradation assay (HiBiT-fusion HeLa cell line, 24 h, luminescence); assay type: cell-based
T1 construct: protein which is expressed from the SMARCA2 and SMARCA4 genes; host or cells: HeLa (SMARCA2-HiBiT engineered line)
Experimental: (§1) SMARCA2 and SMARCA4 Degradation Assay
(§2) Degradation of protein which is expressed from the SMARCA2 and SMARCA4 genes was monitored using engineered HiBiT-fusion HeLa cell lines from Promega. In brief, 384-well white opaque plates (Greiner) were seeded with SMARCA2-HiBiT or SMARCA4-HiBiT HeLa cells at 8,000 cells/well and incubated overnight at 37° C. to allow cell attachment. After overnight incubation, test compounds were added in a 10-point dilution series (typically 10 μM to 300 pM) using a TECAN D300e Digital Dispenser, and plates were subsequently incubated for 24 hours at 37° C. 24-hours post-treatment, protein levels were quantified with the addition of HiBiT lytic buffer, LgBiT protein, and HiBiT substrate, according to manufacturer's specifications. Plates were incubated on an orbital plate shaker for 10 minutes at room temperature. Resulting luminescent values were read out using a ClarioStar plate reader and used to construct dose-response curves and calculation of degradation DC50s (GraphPad Prism).
(§3) Activity of the tested compounds is provided in Table 4 below as follows: A=DC50<0.050 μM; B=0.05 μM<DC50<0.50 μM; C=<0.5 μM<DC50<5.0 μM; D=DC50>5.0 μM. For SMARCA2 and SMARCA4 degradation activity @1 μM, +++=>70%; ++=30-70%; +=<30%.

[2] = target: T2, SMARCA4-HiBiT HeLa cells (protein which is expressed from the SMARCA4 gene) (Homo sapiens, UniProt P51532); assay: SMARCA4 degradation assay (HiBiT-fusion HeLa cell line, 24 h, luminescence); assay type: cell-based
T2 construct: protein which is expressed from the SMARCA2 and SMARCA4 genes; host or cells: HeLa (SMARCA4-HiBiT engineered line)
Experimental: as §1, §2, §3

T2 sequence (P51532 whole entry, the tested form may be a part): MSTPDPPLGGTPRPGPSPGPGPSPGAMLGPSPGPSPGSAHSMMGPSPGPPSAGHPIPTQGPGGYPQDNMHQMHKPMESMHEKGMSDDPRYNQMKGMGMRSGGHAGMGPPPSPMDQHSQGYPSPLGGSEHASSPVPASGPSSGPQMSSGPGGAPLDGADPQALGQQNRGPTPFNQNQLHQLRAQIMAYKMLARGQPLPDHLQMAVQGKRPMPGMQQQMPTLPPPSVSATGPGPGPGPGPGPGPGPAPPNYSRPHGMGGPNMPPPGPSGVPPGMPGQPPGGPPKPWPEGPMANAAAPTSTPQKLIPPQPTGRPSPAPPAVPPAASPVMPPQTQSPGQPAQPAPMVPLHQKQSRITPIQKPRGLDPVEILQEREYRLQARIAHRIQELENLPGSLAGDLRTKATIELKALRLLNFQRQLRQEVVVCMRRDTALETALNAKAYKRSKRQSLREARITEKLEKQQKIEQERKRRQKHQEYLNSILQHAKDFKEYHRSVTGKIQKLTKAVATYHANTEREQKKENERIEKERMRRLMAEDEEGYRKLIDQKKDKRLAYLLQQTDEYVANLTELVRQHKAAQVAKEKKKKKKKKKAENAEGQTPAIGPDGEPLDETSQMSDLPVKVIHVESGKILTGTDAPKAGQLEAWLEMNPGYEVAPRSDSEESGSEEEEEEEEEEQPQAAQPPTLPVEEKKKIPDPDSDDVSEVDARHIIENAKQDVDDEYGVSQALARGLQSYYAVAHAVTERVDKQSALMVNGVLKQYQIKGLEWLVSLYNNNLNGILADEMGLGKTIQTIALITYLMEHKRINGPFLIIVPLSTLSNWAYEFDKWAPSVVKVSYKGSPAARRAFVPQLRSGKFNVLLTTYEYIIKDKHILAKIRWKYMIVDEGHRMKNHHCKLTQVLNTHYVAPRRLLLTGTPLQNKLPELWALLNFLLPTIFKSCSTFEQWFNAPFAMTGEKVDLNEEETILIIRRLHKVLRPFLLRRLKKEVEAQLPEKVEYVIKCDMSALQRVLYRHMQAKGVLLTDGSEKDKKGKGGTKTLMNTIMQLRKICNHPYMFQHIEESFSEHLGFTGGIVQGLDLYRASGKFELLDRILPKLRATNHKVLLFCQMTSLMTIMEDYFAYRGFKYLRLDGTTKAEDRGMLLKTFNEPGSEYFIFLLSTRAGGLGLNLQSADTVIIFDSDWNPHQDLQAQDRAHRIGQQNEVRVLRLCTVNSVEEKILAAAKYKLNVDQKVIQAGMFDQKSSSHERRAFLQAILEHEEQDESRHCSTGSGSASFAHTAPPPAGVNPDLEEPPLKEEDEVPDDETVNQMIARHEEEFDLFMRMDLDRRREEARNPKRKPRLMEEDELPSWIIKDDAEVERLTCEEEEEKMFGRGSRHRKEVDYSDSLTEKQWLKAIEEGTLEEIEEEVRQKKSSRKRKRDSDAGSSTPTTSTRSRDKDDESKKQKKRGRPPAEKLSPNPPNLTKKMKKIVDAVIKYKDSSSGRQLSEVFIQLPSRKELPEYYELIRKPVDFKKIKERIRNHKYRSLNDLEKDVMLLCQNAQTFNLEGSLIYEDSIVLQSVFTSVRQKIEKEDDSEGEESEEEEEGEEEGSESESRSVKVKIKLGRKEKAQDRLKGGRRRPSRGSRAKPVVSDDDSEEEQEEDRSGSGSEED
T1 sequence (P51531 whole entry, the tested form may be a part): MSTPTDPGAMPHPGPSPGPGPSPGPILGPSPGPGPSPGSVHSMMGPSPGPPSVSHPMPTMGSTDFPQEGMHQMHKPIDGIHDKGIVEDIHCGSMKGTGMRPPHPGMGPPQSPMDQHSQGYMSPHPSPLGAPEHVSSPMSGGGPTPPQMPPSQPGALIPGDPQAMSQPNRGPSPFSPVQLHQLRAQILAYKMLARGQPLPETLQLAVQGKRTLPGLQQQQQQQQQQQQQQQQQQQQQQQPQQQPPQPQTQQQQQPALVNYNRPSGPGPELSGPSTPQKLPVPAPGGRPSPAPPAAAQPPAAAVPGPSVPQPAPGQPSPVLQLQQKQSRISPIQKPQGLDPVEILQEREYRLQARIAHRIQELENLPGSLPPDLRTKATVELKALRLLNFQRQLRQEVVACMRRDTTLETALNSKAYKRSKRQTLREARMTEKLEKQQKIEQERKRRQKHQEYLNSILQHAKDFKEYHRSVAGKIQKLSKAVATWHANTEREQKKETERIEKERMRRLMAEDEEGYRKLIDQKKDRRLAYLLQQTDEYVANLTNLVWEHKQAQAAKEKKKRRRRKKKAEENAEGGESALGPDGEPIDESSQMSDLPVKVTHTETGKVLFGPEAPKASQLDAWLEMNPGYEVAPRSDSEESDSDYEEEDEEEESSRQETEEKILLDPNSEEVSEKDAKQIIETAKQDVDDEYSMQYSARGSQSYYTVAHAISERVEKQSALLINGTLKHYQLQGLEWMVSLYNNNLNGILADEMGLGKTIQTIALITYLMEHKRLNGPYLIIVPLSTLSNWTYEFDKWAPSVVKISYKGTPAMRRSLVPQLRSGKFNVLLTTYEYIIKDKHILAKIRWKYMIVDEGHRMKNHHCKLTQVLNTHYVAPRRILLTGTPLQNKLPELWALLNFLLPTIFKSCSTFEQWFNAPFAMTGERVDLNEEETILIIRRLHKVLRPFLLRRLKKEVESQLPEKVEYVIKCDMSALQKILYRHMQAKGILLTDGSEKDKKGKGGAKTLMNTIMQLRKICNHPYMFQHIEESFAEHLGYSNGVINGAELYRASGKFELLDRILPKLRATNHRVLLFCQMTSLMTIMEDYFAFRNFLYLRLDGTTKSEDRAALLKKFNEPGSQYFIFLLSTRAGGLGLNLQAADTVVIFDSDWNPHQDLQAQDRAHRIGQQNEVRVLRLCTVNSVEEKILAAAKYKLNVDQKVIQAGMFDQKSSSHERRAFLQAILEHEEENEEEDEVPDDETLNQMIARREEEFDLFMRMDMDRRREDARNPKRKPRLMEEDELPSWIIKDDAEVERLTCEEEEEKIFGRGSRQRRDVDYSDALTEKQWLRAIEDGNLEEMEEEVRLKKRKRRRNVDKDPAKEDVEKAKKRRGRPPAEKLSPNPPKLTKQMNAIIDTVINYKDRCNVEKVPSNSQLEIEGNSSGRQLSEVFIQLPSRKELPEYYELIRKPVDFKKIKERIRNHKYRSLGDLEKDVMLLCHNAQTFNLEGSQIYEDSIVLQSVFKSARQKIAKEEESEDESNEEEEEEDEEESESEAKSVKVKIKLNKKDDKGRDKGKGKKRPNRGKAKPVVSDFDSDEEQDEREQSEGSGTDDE

Nc1nnc(-c2ccccc2O)cc1N1CCCN(c2ccnc(C#CCNc3ncco3)n2)CC1 [Compound P-15, 2-(6-amino-5-(4-(2-(3-(oxazol-2-ylamino)prop-1-yn-1-yl)pyrimidin-4-yl)-1,4-diazepan-1-yl)pyridazin-3-yl)phenol] was tested, and the DC50 [1] was 500 to 5000 nM, the “SMARCA2 % Degradation @ 1 μM” value [1] was “++ (++=30-70%)” and the DC50 [2] was 500 to 5000 nM. The inhibition at 1 µM [2] was < 30%.

C[C@H]1CN(c2ccnc(C#CCNC(=O)c3cc4ncccn4n3)n2)C[C@H](C)N1c1cc(-c2ccccc2O)nnc1N [Compound P-16, N-(3-(4-((3S,5S)-4-(3-amino-6-(2-hydroxyphenyl)pyridazin-4-y1)-3,5-dimethylpiperazin-1-yl)pyrimidin-2-yl)prop-2-yn-1-yl)pyrazolo[1,5-a]pyrimidine-2-carboxamide] was tested, and the DC50 [1] was 500 to 5000 nM, the “SMARCA2 % Degradation @ 1 μM” value [1] was “+ (+=<30%)” and the DC50 [2] was 500 to 5000 nM. For the same molecule, the inhibition at 1 µM [2] was < 30%.

For Nc1nnc(-c2ccccc2O)cc1N1CC2CC1CN(c1ccnc(C#CCNC(=O)c3cc4ncccn4n3)n1)C2 (stereo not drawn) [Compound P-17, N-(3-(4-(6-(3-amino-6-(2-hydroxyphenyl)pyridazin-4-yl)-3,6-diazabicyclo[3.2.1]octan-3-yl)pyrimidin-2-yl)prop-2-yn-1-yl)pyrazolo[1,5-a]pyrimidine-2-carboxamide], the DC50 [1] was 500 to 5000 nM, the “SMARCA2 % Degradation @ 1 μM” value [1] was “++ (++=30-70%)” and the DC50 [2] was 500 to 5000 nM. It also gave an inhibition at 1 µM [2] of 30 to 70%.

Nc1nnc(-c2ccccc2O)cc1N1CC2C1CCN2c1ccnc(C#CCNC(=O)c2cc3ncccn3n2)n1 (stereo not drawn) [Compound P-18, N-(3-(4-(6-(3-amino-6-(2-hydroxyphenyl)pyridazin-4-yl)-2,6-diazabicyclo[3.2.0]heptan-2-yl)pyrimidin-2-y1)prop-2-yn-1-yl)pyrazolo[1,5-a]pyrimidine-2-carboxamide] was tested, and the DC50 [1] was 500 to 5000 nM, the “SMARCA2 % Degradation @ 1 μM” value [1] was “+ (+=<30%)” and the DC50 [2] was 50 to 500 nM. The inhibition at 1 µM [2] was 30 to 70%.

CC1CCN(c2ccnc(C#CCNC(=O)c3cc4ncccn4n3)n2)CCN1c1cc(-c2ccccc2O)nnc1N (stereo not drawn) [Compound P-19, N-(3-(4-(4-(3-amino-6-(2-hydroxyphenyl)pyridazin-4-yl)-5-methyl-1,4-diazepan-1-yl)pyrimidin-2-yl)prop-2-yn-1-yl)pyrazolo[1,5-a]pyrimidine-2-carboxamide] was tested, and the DC50 [1] was 500 to 5000 nM, the “SMARCA2 % Degradation @ 1 μM” value [1] was “++ (++=30-70%)” and the DC50 [2] was 500 to 5000 nM. For the same molecule, the inhibition at 1 µM [2] was 30 to 70%.

For CC1CN(c2cc(-c3ccccc3O)nnc2N)CCCN1c1ccnc(C#CCNC(=O)c2cc3ncccn3n2)n1 (stereo not drawn) [Compound P-20, N-(3-(4-(4-(3-amino-6-(2-hydroxyphenyl)pyridazin-4-yl)-2-methyl-1,4-diazepan-1-yl)pyrimidin-2-yl)prop-2-yn-1-yl)pyrazolo[1,5-a]pyrimidine-2-carboxamide], the DC50 [1] was 50 to 500 nM, the “SMARCA2 % Degradation @ 1 μM” value [1] was “++ (++=30-70%)” and the DC50 [2] was 50 to 500 nM. For the same molecule, the inhibition at 1 µM [2] was 30 to 70%.

For Cn1ccc(NCC#Cc2nccc(N3CCCN(c4cc(-c5ccccc5O)nnc4N)CC3)n2)n1 [Compound P-21, 2-(6-amino-5-(4-(2-(3-((1-methyl-1H-pyrazol-3-yl)amino)prop-1-yn-1-yl)pyrimidin-4-yl)-1,4-diazepan-1-yl)pyridazin-3-yl)phenol], the DC50 [1] was 50 to 500 nM, the “SMARCA2 % Degradation @ 1 μM” value [1] was “++ (++=30-70%)” and the DC50 [2] was 50 to 500 nM. For the same molecule, the inhibition at 1 µM [2] was 30 to 70%.

For Nc1nnc(-c2ccccc2O)cc1N1C2CCC1CN(c1ccnc(C#CCCNC(=O)c3cc4ncccn4n3)n1)C2 [Compound P-22, N-(4-(4-(8-(3-amino-6-(2-hydroxyphenyl)pyridazin-4-yl)-3,8-diazabicyclo[3.2.1]octan-3-yl)pyrimidin-2-yl)but-3-yn-1-yl)pyrazolo[1,5-a]pyrimidinc-2-carboxamide], the DC50 [1] was 500 to 5000 nM, the “SMARCA2 % Degradation @ 1 μM” value [1] was “++ (++=30-70%)” and the DC50 [2] was 500 to 5000 nM. It also gave an inhibition at 1 µM [2] of 30 to 70%.

Nc1nnc(-c2ccccc2O)cc1N1CCCN(c2ccnc(C#CCCNC(=O)c3cc4ncccn4n3)n2)CC1 [Compound P-23, N-(4-(4-(4-(3-amino-6-(2-hydroxyphenyl)pyridazin-4-yl)-1,4-diazepan-1-yl)pyrimidin-2-yl)but-3-yn-1-yl)pyrazolo[1,5-a]pyrimidine-2-carboxamide] was tested, and the DC50 [1] was 50 to 500 nM, the “SMARCA2 % Degradation @ 1 μM” value [1] was “++ (++=30-70%)” and the DC50 [2] was 50 to 500 nM. For the same molecule, the inhibition at 1 µM [2] was 30 to 70%.

With CN(CC#Cc1nccc(N2CCCN(c3cc(-c4ccccc4O)nnc3N)CC2)n1)C(=O)c1cc2ncccn2n1 [Compound P-24, N-(3-(4-(4-(3-amino-6-(2-hydroxyphenyl)pyridazin-4-yl)-1,4-diazepan-1-yl)pyrimidin-2-yl)prop-2-yn-1-yl)-N-methylpyrazolo[1,5-a]pyrimidine-2-carboxamide] the DC50 [1] was < 50 nM, the “SMARCA2 % Degradation @ 1 μM” value [1] was “+++ (+++=>70%)” and the DC50 [2] was < 50 nM. The inhibition at 1 µM [2] was > 70%.

Nc1nnc(-c2ccccc2O)cc1N1C[C@H]2C[C@@H]1CN2c1ccnc(C#CCNC(=O)c2cc3ncccn3n2)n1 [Compound P-25, N-(3-(4-((1R,4R)-5-(3-amino-6-(2-hydroxyphenyl)pyridazin-4-yl)-2,5-diazabicyclo[2.2.1]heptan-2-yl)pyrimidin-2-yl)prop-2-yn-1-yl)pyrazolo[1,5-a]pyrimidine-2-carboxamide] was tested, and the DC50 [1] was 50 to 500 nM, the “SMARCA2 % Degradation @ 1 μM” value [1] was “+++ (+++=>70%)” and the DC50 [2] was 50 to 500 nM. The inhibition at 1 µM [2] was > 70%.

In the case of Nc1nnc(-c2ccccc2O)cc1N1CCCN(c2ccnc(C#CCNc3nc4ccccc4o3)n2)CC1 [Compound P-26, 2-(6-amino-5-(4-(2-(3-(benzo[d]oxazol-2-ylamino)prop-1-yn-1-yl)pyrimidin-4-yl)-1,4-diazepan-1-yl)pyridazin-3-yl)phenol], the DC50 [1] is reported as 50 to 500 nM, the “SMARCA2 % Degradation @ 1 μM” value [1] is reported as “+++ (+++=>70%)” and the DC50 [2] is reported as 50 to 500 nM. For the same molecule, the inhibition at 1 µM [2] was > 70%.

In the case of CC1CN(c2ccnc(C#CCNC(=O)c3cc4ncccn4n3)n2)CCN(c2cc(-c3ccccc3O)nnc2N)C1 (stereo not drawn) [Compound P-27, N-(3-(4-(4-(3-amino-6-(2-hydroxyphenyl)pyridazin-4-yl)-6-methyl-1,4-diazepan-1-yl)pyrimidin-2-yl)prop-2-yn-1-yl)pyrazolo[1,5-a]pyrimidine-2-carboxamide], the DC50 [1] is reported as 50 to 500 nM, the “SMARCA2 % Degradation @ 1 μM” value [1] is reported as “+++ (+++=>70%)” and the DC50 [2] is reported as 50 to 500 nM. The inhibition at 1 µM [2] was > 70%.

In the case of Nc1nnc(-c2ccccc2O)cc1N1CCN(c2ccnc(C#CCNC(=O)c3cc4ncccn4n3)n2)C2CC21 (stereo not drawn) [Compound P-28, N-(3-(4-(5-(3-amino-6-(2-hydroxyphenyl)pyridazin-4-yl)-2,5-diazabicyclo[4.1.0]heptan-2-yl)pyrimidin-2-yl)prop-2-yn-1-yl)pyrazolo[1,5-a]pyrimidine-2-carboxamide], the DC50 [1] is reported as 50 to 500 nM, the “SMARCA2 % Degradation @ 1 μM” value [1] is reported as “++ (++=30-70%)” and the DC50 [2] is reported as < 50 nM. The inhibition at 1 µM [2] was 30 to 70%.

With CC1CN(c2ccnc(C#CCNC(=O)c3cc4ncccn4n3)n2)CCCN1c1cc(-c2ccccc2O)nnc1N (stereo not drawn) [Compound P-29, N-(3-(4-(4-(3-amino-6-(2-hydroxyphenyl)pyridazin-4-yl)-3-methyl-1,4-diazepan-1-yl)pyrimidin-2-yl)prop-2-yn-1-yl)pyrazolo[1,5-a]pyrimidine-2-carboxamide] the DC50 [1] was 50 to 500 nM, the “SMARCA2 % Degradation @ 1 μM” value [1] was “+++ (+++=>70%)” and the DC50 [2] was 50 to 500 nM. For the same molecule, the inhibition at 1 µM [2] was > 70%.
